Experimental data reported in US10494332B2, “Protein tyrosine phosphatases or SHP2 inhibitors and uses thereof” (Indiana University Research and Technology Corporation, priority 2015, dated 2019).
Where “and” joins values, the source holds several entries; their conditions need not be identical. Identical values can stand only once. Entries after “also recorded” stand apart in the source; their conditions may differ. Like-named read-outs stand apart in the source and are kept apart here.

Tests used:
SHP2 [1] = target: T1, SHP2 (Homo sapiens, UniProt Q06124); test: SHP2 phosphatase inhibition assay (pNPP); type: biochemical; details: for Mode of SHP2 inhibition: with respect to pNPP
T1 sequence (Q06124 224-528): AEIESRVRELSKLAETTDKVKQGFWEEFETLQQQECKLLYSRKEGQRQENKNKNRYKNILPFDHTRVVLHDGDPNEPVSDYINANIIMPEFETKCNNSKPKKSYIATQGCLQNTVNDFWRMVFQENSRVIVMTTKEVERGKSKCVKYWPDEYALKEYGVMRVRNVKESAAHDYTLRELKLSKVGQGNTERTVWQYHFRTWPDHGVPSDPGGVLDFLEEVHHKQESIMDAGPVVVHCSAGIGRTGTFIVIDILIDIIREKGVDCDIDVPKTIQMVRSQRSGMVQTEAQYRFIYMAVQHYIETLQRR

SHP2/E508A = SHP2/E508A (Homo sapiens, UniProt Q06124, E508A); test: SHP2 mutant inhibition assay (pNPP); type: biochemical; details: pH 7.0
SHP2/R362A = SHP2/R362A (Homo sapiens, UniProt Q06124, R362A); test: SHP2 mutant inhibition assay (pNPP); type: biochemical
[2] = Stability in buffer solutions by LC-MS; type: physicochemical
Description: (§1) Agilent Technologies 6130 quadrupole LC-MS instrument was used for the LC-MS studies. A C18 reserved phase column (phenomenex, 50×4.6 mm) was used as stationary phase, water and methanol (both containing 0.1% formic acid) were used as mobile phase (gradient: 0-100% methanol, flow 0.8 mL/min, run time 15 minutes), and UV absorbance at the fixed wavelength of 254 nm and positive and negative ESI-MS data were recorded. The sample was adjusted to have a concentration at 0.1 mg/mL, and the injection volume of each sample was 0.2 μL. The retention time and corresponding ESI-MS data were used as identity of molecules.

SHP2 [3] = target: SHP2 (Homo sapiens, UniProt Q06124); test: Covalent modification of SHP2 by QTOF ESI-MS / LC-MS; details: 100 μM compound; cefsulodin three hours, phenyl vinyl sulfone 10 minutes
Description: Agilent 6520 Accurate-Mass was used for the Q-TOF ESI-MS studies. Water and acetonitrile (both containing 0.1% formic acid) were used as eluent (80% water, flow 50 μL/min, run time 5 minutes). ESI positive mode was used with mass range from 300 to 1700, the gas temperature was 325° C., and vaporizer temperature was: […]. The sample was adjusted to have a concentration at 0.1 mg/mL, the injection volume of each sample was 1 μL. Mass hunter software was used for protein deconvolution data analysis to calculate the molecular weight of the protein.
as §1

PTPμ = PTPμ (Homo sapiens, UniProt P28827); test: biochemical
PP5 = target: T2, PP5 (Homo sapiens, UniProt P53041); test: biochemical
T2 sequence (P53041 1-499): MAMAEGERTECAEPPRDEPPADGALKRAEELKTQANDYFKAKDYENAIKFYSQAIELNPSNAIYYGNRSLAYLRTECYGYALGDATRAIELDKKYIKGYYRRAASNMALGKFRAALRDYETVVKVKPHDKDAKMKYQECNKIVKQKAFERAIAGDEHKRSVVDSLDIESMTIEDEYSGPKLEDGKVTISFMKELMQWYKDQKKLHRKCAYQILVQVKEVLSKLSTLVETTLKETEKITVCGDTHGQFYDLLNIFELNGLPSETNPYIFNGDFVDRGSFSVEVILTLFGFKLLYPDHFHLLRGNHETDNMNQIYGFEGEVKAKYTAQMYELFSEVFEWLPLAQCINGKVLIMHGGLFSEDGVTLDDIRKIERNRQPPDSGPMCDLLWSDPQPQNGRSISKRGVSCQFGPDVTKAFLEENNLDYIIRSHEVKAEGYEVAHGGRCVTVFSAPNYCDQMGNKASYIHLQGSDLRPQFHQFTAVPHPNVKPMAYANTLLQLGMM

[4] = test system: H1975 non-small cell lung cancer (NSCLC) cell line; test: MTT cell proliferation assay; type: cell-based, human; details: 20 μM and 40 μM, 2 days
Description: (§2) Human non-small cell lung carcinoma cell line H1975 was cultured at 37° C. and 5% CO2 in RPMI-1640 (Corning) supplemented with 10% fetal bovine serum (HyClone). Human breast cancer cell line MDA-MB-231 was cultured in DMEM supplemented with 10% fetal bovine serum. For cell proliferation assay, 2˜3×10^3 cells were seeded in each well of 96-well plates. After treating cells with compounds for 2 days, cells were incubated with 50 μg/ml MTT (3-(4,5-Dimethylthiazol-2-yl)-2,5-diphenyltetrazolium bromide) for ˜3-4 hours. Then, the culture medium was removed, DMSO was added to dissolve the formazan crystals. Wells containing only media were used for background correction. The optical density was measured spectrophotometrically at 540 nm. For signaling analysis, cells were serum-starved overnight followed by treatment with vehicle or compounds for 3 hours, and then either left un-stimulated or stimulated with 5 μg/ml EGF or 10 nM PMA (Sigma) for indicated time. Cells were lysed and the lysates were electrophoresed on a 10% polyacrylamide gel, and then transferred to a nitrocellulose membrane, and probed with anti-phospho-ERK1/2 and anti-ERK1/2 (Cell Signaling) antibodies followed by incubation with horseradish peroxidase-conjugated secondary antibodies. The blots were developed by the enhanced chemiluminescence technique using the SuperSignal West Pico Chemiluminescent substrate (Pierce).

[5] = test system: MDA-MB-231 breast cancer cell line; test: MTT cell proliferation assay; type: cell-based, human; details: 20 μM and 40 μM, 2 days
Description: as §2

[6] = test system: EGF-mediated ERK1/2 phosphorylation in H1975 cells; test: EGF-induced ERK1/2 phosphorylation immunoblot; type: cell-based, human; details: compound 7 at 40 μM
Description: as §2

M. tuberculosis H37Rv = test: Microplate Alamar Blue assay (MABA) MIC; type: cell-based, Mycobacterium tuberculosis
M. tuberculosis Erdman = test: Microplate Alamar Blue assay (MABA) MIC; type: cell-based; details: Mycobacterium tuberculosis, minimum inhibitory concentration, read-out: In vitro anti-Mtb activity MABA-MIC Erdman
[7] = test system: M. tuberculosis (Erdman and H37Rv) in J774 macrophages; test: Macrophage assay: growth of M. tuberculosis in IFN-γ activated J774 macrophages; type: cell-based, Mycobacterium tuberculosis
[8] = Pharmacokinetics and bioavailability in guinea pigs; type: in vivo, guinea pig; details: oral
Description: All drugs were suspended in 1% DMSO, 0.5% DEA, 48.5% PEG 400, and 50% water. Blood was collected for analysis of these drugs in plasma pre-dose and at 1, 4, 8, 24, and 48 h post-dose. Plasma was separated and stored at −70° C. until analysis. Plasma drug concentrations were determined by liquid chromatography-mass spectrometry and liquid chromatography-tandem mass spectrometry over the concentration range of 0.005-1 mg/L with dilution to 10 mg/L. Pharmacokinetic variables were calculated from individual drug concentration-time data using non-compartmental methods as implemented in WinNonlin version 5.0 (Pharsight, Mountain View, Calif.) as described earlier.

[9] = Example 9: SHP2 catalytic domain 20 nM, pNPP 3 mM, pH 7.0, 25° C., read-out: IC50 SHP2

SHP2/R362A, sequence (Q06124 224-528 R362A): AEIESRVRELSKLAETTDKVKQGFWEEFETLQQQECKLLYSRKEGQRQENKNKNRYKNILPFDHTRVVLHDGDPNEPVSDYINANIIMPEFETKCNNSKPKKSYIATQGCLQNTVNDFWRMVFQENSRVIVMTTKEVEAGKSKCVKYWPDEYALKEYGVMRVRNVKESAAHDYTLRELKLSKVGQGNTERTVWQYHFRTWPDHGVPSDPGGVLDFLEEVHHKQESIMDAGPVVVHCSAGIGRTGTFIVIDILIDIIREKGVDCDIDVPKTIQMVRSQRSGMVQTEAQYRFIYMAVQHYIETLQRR
PTPμ, sequence (P28827 21-1452): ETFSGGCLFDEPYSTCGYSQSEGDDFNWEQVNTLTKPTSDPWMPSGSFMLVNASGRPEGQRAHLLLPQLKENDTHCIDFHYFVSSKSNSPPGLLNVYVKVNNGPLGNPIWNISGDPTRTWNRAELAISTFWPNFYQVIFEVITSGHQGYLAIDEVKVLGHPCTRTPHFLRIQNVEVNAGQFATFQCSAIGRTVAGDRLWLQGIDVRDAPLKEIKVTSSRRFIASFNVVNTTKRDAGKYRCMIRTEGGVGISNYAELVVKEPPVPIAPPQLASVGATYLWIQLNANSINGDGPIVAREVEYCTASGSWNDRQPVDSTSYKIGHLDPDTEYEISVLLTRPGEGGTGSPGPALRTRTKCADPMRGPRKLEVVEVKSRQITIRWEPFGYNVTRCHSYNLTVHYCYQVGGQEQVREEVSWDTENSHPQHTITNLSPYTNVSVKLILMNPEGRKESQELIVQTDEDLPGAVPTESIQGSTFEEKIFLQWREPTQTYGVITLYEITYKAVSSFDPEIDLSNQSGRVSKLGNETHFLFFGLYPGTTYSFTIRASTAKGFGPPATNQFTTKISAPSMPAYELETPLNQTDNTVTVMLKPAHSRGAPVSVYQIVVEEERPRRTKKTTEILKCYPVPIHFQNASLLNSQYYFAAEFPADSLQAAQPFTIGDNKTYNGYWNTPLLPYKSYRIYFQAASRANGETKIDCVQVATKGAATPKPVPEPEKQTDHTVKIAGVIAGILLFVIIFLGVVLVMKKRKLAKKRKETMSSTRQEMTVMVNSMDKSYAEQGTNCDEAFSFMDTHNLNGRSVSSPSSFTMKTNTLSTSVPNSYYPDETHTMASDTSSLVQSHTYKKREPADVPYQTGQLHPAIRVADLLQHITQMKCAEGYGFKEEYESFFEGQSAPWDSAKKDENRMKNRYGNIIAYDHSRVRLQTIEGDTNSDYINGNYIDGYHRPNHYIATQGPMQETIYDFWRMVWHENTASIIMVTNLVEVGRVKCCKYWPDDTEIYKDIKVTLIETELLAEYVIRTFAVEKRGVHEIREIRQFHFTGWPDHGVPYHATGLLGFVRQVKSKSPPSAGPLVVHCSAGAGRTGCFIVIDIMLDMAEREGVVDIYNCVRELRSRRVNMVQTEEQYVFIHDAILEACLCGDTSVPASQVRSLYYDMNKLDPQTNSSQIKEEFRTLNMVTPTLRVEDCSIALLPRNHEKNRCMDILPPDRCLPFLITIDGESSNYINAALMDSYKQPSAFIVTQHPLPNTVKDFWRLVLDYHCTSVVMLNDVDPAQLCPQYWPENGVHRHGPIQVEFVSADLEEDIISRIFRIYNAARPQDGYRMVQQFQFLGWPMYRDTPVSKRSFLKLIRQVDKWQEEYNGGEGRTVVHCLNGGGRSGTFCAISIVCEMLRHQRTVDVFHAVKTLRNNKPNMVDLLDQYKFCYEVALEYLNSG
SHP2/E508A, sequence (Q06124 224-528 E508A): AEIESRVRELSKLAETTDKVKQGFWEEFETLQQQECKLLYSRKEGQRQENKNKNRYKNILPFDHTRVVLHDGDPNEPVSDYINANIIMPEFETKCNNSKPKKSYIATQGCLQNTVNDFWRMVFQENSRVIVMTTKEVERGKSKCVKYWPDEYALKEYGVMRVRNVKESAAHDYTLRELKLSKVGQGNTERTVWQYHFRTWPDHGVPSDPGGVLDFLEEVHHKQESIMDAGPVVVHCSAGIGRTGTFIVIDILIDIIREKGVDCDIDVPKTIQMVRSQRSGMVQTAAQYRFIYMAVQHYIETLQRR

**Q.** Which results are given for `NC(=O)c1cc[n+](CC2=C(C(=O)O)N3C(=O)[C@@H](NC(=O)[C@@H](c4ccccc4)S(=O)(=O)[O-])[C@H]3SC2)cc1` [Cefsulodin, reference compound]?
**A.** IC50 (SHP2 [1]; [9]): 16.8 µM and 16.7 µM; Ki (SHP2 [1]; Lineweaver-Burk, pNPP as substrate): 6.6 ± 0.2 µM; Fold selectivity for SHP2 against PTPs examined (SHP2 [1]; cefsulodin: with the exception of SHP1): greater than 10 fold; IC50 (SHP2 [1]; incubated with SHP2 for 30 minutes prior to addition of pNPP, read-out: IC50 SHP2, inhibitor pre-mixed with SHP2): 16.8 ± 1.8 µM; IC50 (SHP2 [1]; incubated with pNPP for 30 minutes prior to addition of SHP2, read-out: IC50 SHP2, inhibitor pre-mixed with pNPP): 17.5 ± 2 µM; Mode of SHP2 inhibition (SHP2 [1]): competitive inhibitor; Mode of SHP2 inhibition (SHP2 [1]; listed as cefsulodin): competitive and reversible SHP2 inhibitor; IC50 (SHP2/E508A): 19 ± 1 µM; IC50 (SHP2/R362A; pNPP, pH 7.0): 46.5 ± 4.9 µM; Fold increase of IC50 by replacement of R362 with alanine (SHP2/R362A; vs wild-type SHP2): 3 fold; Degradation in pH 5.8 MES buffer ([2]; 20 mM MES, 250 mM NaCl, 1 mM EDTA, LC-MS): negligible; Degradation in pH 7.4 CBTP buffer ([2]; 33 mM Citric acid, 67 mM BIS-TRIS Propane, LC-MS): obvious; Degradation in CBTP buffer at pH 9.1 ([2]; LC-MS): further accelerated; Time stable in MES buffer pH=5.8 ([2]; LC-MS): at least 2 days; Time until compound was gone in CBTP buffer pH=9.1 ([2]; LC-MS): ≤ 12 h; Time to complete degradation under crystallization condition ([2]; final pH=7.1, 20° C., with SHP2 and DTT): ≤ 2 days; Covalent adduct formation with SHP2 (QTOF ESI-MS) (SHP2 [3]): no covalent adduct formation; IC50 (PTPμ): > 200 µM; IC50 (PP5): > 200 µM

**Q.** What does the source list for `O=C(Nc1ccc(NC(=O)C(c2ccccc2)S(=O)(=O)O)cc1)C(=O)Nc1ccc(-c2ccccc2)cc1` (stereo not drawn) [Compound 5, 2-((4-(2-([1,1′-biphenyl]-4-ylamino)-2-oxoacetamido)phenyl)amino)-2-oxo-1-phenylethanesulfonic acid]?
**A.** IC50 (SHP2 [1]; [9]): 1.36 ± 0.04 µM; H1975 cell proliferation (MTT) [4]: reduce H1975 cell proliferation in a dose dependent manner; also recorded: significantly (**p<0.01) reduced cell proliferation; MDA-MB-231 cell survival/growth (MTT) [5]: significantly (**p<0.01) reduced cell survival; IC50 (PTPμ): > 10 µM; IC50 (PP5): > 10 µM

**Q.** Which “Inhibition of SHP2 at 50 μM” value (SHP2 [1]; 50 μM) does the source give for `O=C(Nc1ccccc1)C(=O)Nc1ccc(NC(=O)C(c2ccccc2)S(=O)(=O)O)cc1` (stereo not drawn) [Compound 7, 2-oxo-2-((4-(2-oxo-2-(phenylamino)acetamido)phenyl)amino)-1-phenylethanesulfonic acid] here?
**A.** no inhibition

**Q.** What about the IC50 (SHP2 [1]; [9]) of the same molecule?
**A.** > 50 µM

**Q.** And the “H1975 cell proliferation (MTT)” value [4]?
**A.** ineffective; also recorded: did not

**Q.** What about the “MDA-MB-231 cell survival/growth (MTT)” value [5] of the same molecule?
**A.** did not

**Q.** What about the “Effect on EGF-mediated ERK1/2 phosphorylation” value [6] of the same molecule?
**A.** no appreciable effect; also recorded: failed to block EGF-mediated ERK1/2 phosphorylation

**Q.** With `O=C(O)c1cc2c(C#Cc3cccc(C(F)(F)F)c3)c(-c3ccccc3)oc2cc1O` [Compound L01Z08] as the molecule, how does the “Activity in standard MIC assay” value (M. tuberculosis H37Rv) read?
**A.** inactive

**Q.** What about the MIC (M. tuberculosis H37Rv; Mycobacterium tuberculosis, H37RV, minimum inhibitory concentration, read-out: In vitro anti-Mtb activity MABA-MIC H37Rv) of the same molecule?
**A.** > 10 µM

**Q.** And the MIC (M. tuberculosis Erdman)?
**A.** > 10 µM

**Q.** What about the “Anti-Mtb activity in infected macrophages” value ([7]; J774A.1 macrophages, low micromolar concentrations) of the same molecule?
**A.** potent anti-Mtb activity

**Q.** And the IC90 ([7]; Mycobacterium tuberculosis, J774, IC90 in macrophages activated with interferon-γ, read-out: In vitro anti-Mtb activity, Mtb-infected macrophages (IC90))?
**A.** < 5 µM

**Q.** And the “Oral bioavailability and half-life in guinea pigs” value [8]?
**A.** good oral bioavailability and half-life

**Q.** Which “Covalent adduct formation with SHP2 (QTOF ESI-MS)” value (SHP2 [3]) does the source give for `C=CS(=O)(=O)c1ccccc1` [phenyl vinyl sulfone] here?
**A.** formed a covalent adduct
